Columns and labels:
[1] = for HR, melanoma specific survival adjusted for Breslow thickness / HR, melanoma specific survival adjusted for Breslow thickness and lymph gland metastases: hazard ratio versus non-users; for effect on melanoma survival: regardless of age, gender and tumor status; for survivability, comparative results adjusted for Breslow thickness: tables 1 and 2, adjusted for Breslow thickness
Procedure: (§1) Both peri- and post-diagnostic antihistamine use was analyzed, using Cox regression models, as well as different subgroups of patients with regard to age, gender (as a proxy for sex) and tumor status.
(§2) Our study population included all of the 35,905 individuals with newly diagnosed melanoma from 2005 through 2014, identified using the Swedish National Quality Register for Malignant Skin Melanoma (hereafter referred to as the Melanoma Register), a database comprising all cases of malignant melanoma of the skin in Sweden since 1990. Melanoma in situ is not included in this register, nor melanoma in any other site than the skin. It has a coverage of approximately 98%, and in addition to variables such as age and TNM status, the Melanoma Register also includes information on the histopathology of the tumors, such as Breslow and Clark measures. Use of the six major antihistamines was established using the Swedish Prescribed Drug Register, a record of all dispensed prescribed pharmaceuticals in Sweden since July 1st 2005. To be included in the registry at least 2 weeks of prescription is required. Prescription free antihistamine use, non-dispensed doses, or use of other, less common, types of antihistamines is here considered non-use. Causes of death were obtained from the Swedish Cause of Death Register, a database where all deaths have been recorded since 1952. Data was pseudo-anonymized and the study was approved by the Regional Ethics Board.
(§3) For the cumulative post-diagnostic antihistamine use analysis, mortality rates for antihistamine users were compared to those of non-users through a Cox regression model allowing for time varying covariates, and survival time was measured in years since diagnosis. This allowed for a single individual to provide data as both a non-user and user of different antihistamines.
(§4) The impact of the cumulative DDDs was assessed after log transformation of the DDDs plus one3. Cox regression analyses were stratified for patient age at diagnosis, tumor size and node status (T and N status, respectively). A lag-time analysis was performed as described by Tamim et al. and Richardson et al. Statistical analyses were performed using R version XXX6.

[2] = Nation-wide register-based study, Cox regression: overall mortality/survival by antihistamine use; type: in vivo, human; details: hazard ratio versus non-users
Procedure: as §1, §2, §3, §4

[3] = use 6 months before and after diagnosis; adjusted for Breslow, sentinel lymph node status and education level
[4] = Risk of developing a second (new primary) melanoma after the first melanoma diagnosis; type: in vivo, human; details: for HR, risk of a new primary melanoma: use longer than 3 years after the first diagnosis, adjusted for age and sex, p<0.05
[5] = somnolence, tachycardia and headache reported; cited from earlier work

Row | SMILES | HR, melanoma specific survival adjusted for Breslow thickness [1] | HR, melanoma specific survival adjusted for Breslow thickness and lymph gland metastases [1] | effect on melanoma survival [1] | survivability, comparative results adjusted for Breslow thickness [1] | HR, overall survival adjusted for Breslow thickness [2] | HR, overall survival adjusted for Breslow thickness and lymph gland metastases [2] | HR, peridiagnostic use, melanoma mortality [3] | risk of a new primary melanoma, follow up counted from day 1 [4] | HR, risk of a new primary melanoma [4] | symptoms in connection with overdoses [5] | melanoma specific mortality HR, Men <65 ([1]; Men <65, 95% CI in brackets) | melanoma specific mortality HR, Men >65 ([1]; Men >65, 95% CI in brackets) | melanoma specific mortality HR, Women <65 ([1]; Women <65, 95% CI in brackets) | melanoma specific mortality HR, Women >65 ([1]; Women >65, 95% CI in brackets) | melanoma specific mortality HR, looking at DDD:s ([1]; by defined daily doses (DDDs), 95% CI in brackets)
1 | CN1CCC[C@@H]1CCO[C@](C)(c1ccccc1)c1ccc(Cl)cc1 [Clemastine, clemastine] | 1.027 | 0.993 | consistently negative effect | lack of improval of survivability | 1.114 | 1.101 | 1.005 |  |  |  |  |  |  |  | 
2 | CCOC(=O)N1CCC(=C2c3ccc(Cl)cc3CCc3cccnc32)CC1 [Loratadine, loratadine] | 0.858 | 0.851 | consistently beneficial effect |  | 0.962 | 0.964 | 0.534 | No significant difference | 0.88 | increase the incidence of anticholinergic symptoms |  |  |  |  | 
3 | CC(C)(C)c1ccc(C(=O)CCCN2CCC(OC(c3ccccc3)c3ccccc3)CC2)cc1 [Ebastine, ebastine] | 1.138 | 1.03 |  | lack of improval of survivability | 1.117 | 1.076 | 1.032 |  |  |  |  |  |  |  | 
4 | O=C(O)COCCN1CCN(C(c2ccccc2)c2ccc(Cl)cc2)CC1 (centres unmarked) [Cetirizine, cetirizine] | 1.006 | 1.014 |  | lack of improval of survivability | 1 | 0.991 | 0.962 |  |  |  |  |  |  |  | 
5 | Clc1ccc2c(c1)CCc1cccnc1C2=C1CCNCC1 [Desloratadine, desloratadine] | 0.883 | 0.889 | consistently beneficial effect |  | 0.95 | 0.953 | 0.569 | No significant difference | 0.88 |  | 0.69 (0.37-1.29) | 0.77 (0.45-1.33) | 0.57 (0.25-1.28) | 0.80 (0.44-1.45) | 0.93 (0.87-1.00)
6 | CC(C)(C(=O)O)c1ccc(C(O)CCCN2CCC(C(O)(c3ccccc3)c3ccccc3)CC2)cc1 (centres unmarked) [Fexofenadine, fexofenadine] | 0.979 | 0.935 |  | lack of improval of survivability | 1.011 | 1.013 | 0.901 |  |  |  |  |  |  |  | 
